Molecules are shown by their SMILES. Structures can show the parent of a compound that is named as a salt. Where two headings read alike, the source gives them in different places.

As a reminder, the IC50 is the concentration at which inhibition is half-maximal.

Common to all, as to assay type: biochemical
One assay addresses T1, Cathepsin K (Homo sapiens, UniProt P43235).
T1 sequence (P43235 115-329): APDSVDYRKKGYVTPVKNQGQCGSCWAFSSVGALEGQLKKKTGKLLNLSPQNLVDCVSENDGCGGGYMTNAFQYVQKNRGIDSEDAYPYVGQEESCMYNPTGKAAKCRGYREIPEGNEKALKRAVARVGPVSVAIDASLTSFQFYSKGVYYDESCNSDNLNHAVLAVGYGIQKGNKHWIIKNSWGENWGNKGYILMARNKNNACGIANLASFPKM
The assay can be described thus: Cathepsin K enzymatic assay (assay 1). The following applies: human recombinant enzyme, Z-FR-AFC substrate, pH 5.5. How it is done:
(§1) Assay 1) Determination of Falcipain-2, Falcipain-3, Vivapain-2, Cathepsin K Cathepsin S, Cathepsin L, and Cathepsin B Proteolytic Catalytic Activity
(§2) Assays for Falcipain-2, Falcipain-3, and Vivapain-2 are carried out with parasitic recombinant enzymes. Cathepsins K, S, L, and B are carried out with human recombinant enzymes. Standard assay conditions for the determination of kinetic constants used a fluorogenic peptide substrate, typically H-D-VLR-AFC (Falcipain-2, Falcipain-3, Vivapain-2), Z-FR-AFC (Cathepsin K, L, B), or KQKLR-AMC (Cathepsin S) and are determined in 100 mM sodium acetate, pH 5.5, containing 10 mM DTT and 0.5 mM CHAPS (Falcipain-2, Falcipain-3, Vivapain-2), and 100 mM sodium acetate, pH 5.5, containing 5 mM L-cysteine, 1 mM CHAPS and 5 mM EDTA (Cathepsin K, L, B), or 50 mM MES, pH 6.5, containing 0.5 mM CHAPS, 10 mM L-CYS, 5 mM EDTA (Cathepsin S). Stock substrate solutions are prepared at 20 mM in DMSO. The activity assays contained 30 uM substrate (Falcipain-2, Falcipain-3, Vivapain-2), 20 uM substrate (Cathepsin K), 25 uM substrate (Cathepsin B), 5 uM substrate (Cathepsin L), and 30 uM substrate (Cathepsin S). All assays contained 1% DMSO. […] All assays are conducted at ambient temperature as end point assays being quenched after 60 minutes with the exception of Cathepsin S at 90 minutes, with 16.6 uM E-64 in 1% DMSO. Product formation (AFC or AMC) is determined from fluorescence (excitation at 405 nm; emission at 530 nm, AFC, or excitation at 360 nm; emission at 460 nm, AMC) monitored with a LJL Aquest (Molecular Devices) fluorescent plate reader. In the case of kinetic reads (used in mechanism of action studies), the reaction is not quenched but is read in the plate reader every 3 minutes for approximately 90 minutes. In addition, the mechanism of action studies for Falcipain-2 utilize Z-LR-AMC as the substrate. Product formation is determined from the fluorescence of AMC, measured with a LJL Acquest (Molecular Devices) fluorescent plate reader (excitation at 360 nm; emission at 460 nm).
(§3) Potential inhibitors are evaluated using the quenched read (endpoint) method. Assays are carried out in the presence of variable concentrations of test compound. Reactions are initiated by addition of enzyme and substrate to wells containing inhibitor stamped in 100% DMSO. For endpoint assays, the reaction is quenched with the addition of E64. Dose response data is fit to an IC50 curve with preset fitting tools according to equation 1:
(§4) y=a+(b−a)/(1+(10^x/10^c)^d) (1)
(§5) where y is the response at a particular inhibitor concentration x, a is the minimum response value, b is the maximum response value, c is the IC50, and d is the slope of the IC50 curve. Assuming the compound is a competitive inhibitor, the apparent KI can be calculated from IC50, as shown in equation 2: […]

Another assay concerns the target Falcipain-3 (Plasmodium falciparum, UniProt Q8IIL0). The assay is described as follows: Falcipain-3 enzymatic assay (assay 1). How it is done:
as §1, §2, §3, §4, §5

For the next assay, the target named is Falcipain-2 (Plasmodium falciparum, UniProt Q8I6U4). The assay can be described thus: Falcipain-2 enzymatic assay (assay 1). How it is done:
as §1, §2, §3, §4, §5

Another assay addresses Cathepsin S (Homo sapiens, UniProt P25774). The assay is described as follows: Cathepsin S enzymatic assay (assay 1). The conditions noted are these: human recombinant enzyme, KQKLR-AMC substrate, pH 6.5. How it is done: as §1, §2, §3, §4, §5

Sequence of Cathepsin S (P25774 115-331): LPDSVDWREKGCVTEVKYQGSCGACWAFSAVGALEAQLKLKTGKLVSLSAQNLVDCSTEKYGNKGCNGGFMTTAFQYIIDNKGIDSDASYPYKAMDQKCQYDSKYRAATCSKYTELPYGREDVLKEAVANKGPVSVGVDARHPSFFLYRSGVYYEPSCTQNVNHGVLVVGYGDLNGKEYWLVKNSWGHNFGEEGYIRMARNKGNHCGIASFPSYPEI
Sequence of Falcipain-2 (Q8I6U4 244-484): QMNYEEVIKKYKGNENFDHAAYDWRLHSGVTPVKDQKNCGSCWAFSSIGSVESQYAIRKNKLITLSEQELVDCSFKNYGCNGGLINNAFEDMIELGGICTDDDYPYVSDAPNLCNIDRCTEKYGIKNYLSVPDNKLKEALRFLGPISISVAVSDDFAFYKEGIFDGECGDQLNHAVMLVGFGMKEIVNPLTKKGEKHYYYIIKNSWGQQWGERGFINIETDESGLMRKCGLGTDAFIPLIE
Sequence of Falcipain-3 (Q8IIL0 243-492): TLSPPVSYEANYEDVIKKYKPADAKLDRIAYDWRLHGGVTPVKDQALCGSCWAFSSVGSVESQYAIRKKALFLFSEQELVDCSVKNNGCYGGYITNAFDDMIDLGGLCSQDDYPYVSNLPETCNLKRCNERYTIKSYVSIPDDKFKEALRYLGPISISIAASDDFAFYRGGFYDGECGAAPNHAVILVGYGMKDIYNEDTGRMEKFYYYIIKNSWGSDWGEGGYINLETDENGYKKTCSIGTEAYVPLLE

With `CN1CCN(C2CCN(Cc3cccc(C(=O)NN(c4nc(C#N)ncc4Br)C4CCCCC4)c3)CC2)CC1` [Example 20, N′-(5-bromo-2-cyano-4-pyrimidinyl)-N′-cyclohexyl-3-{([4-(4-methyl-1-piperazinyl)-1-piperidinyl]methyl}benzohydrazide trifluoroacetate], the IC50 on Cathepsin K was under 1.5 nM; at Falcipain-3 it was 15 to 150 nM; at Falcipain-2, under 1 nM.
Take `N#Cc1ncc(Br)c(N(NC(=O)c2ccc(CN3CCC(O)CC3)cc2)C2CCCCC2)n1` [Example 21, N′-(5-bromo-2-cyano-4-pyrimidinyl)-N′-cyclohexyl-4-[(4-hydroxy-1-piperidinyl)methyl]benzohydrazide trifluoroacetate]: the IC50 is under 1.5 nM on Cathepsin K, 2.5 to 15 nM on Falcipain-3 and under 1 nM at Falcipain-2.
`CN1CCN(C(=O)C2CCN(Cc3ccc(C(=O)NN(c4nc(C#N)ncc4Br)C4CCCCC4)cc3)CC2)CC1` [Example 22, N′-(5-bromo-2-cyano-4-pyrimidinyl)-N′-cyclohexyl-4-({4-[(4-methyl-1-piperazinyl)carbonyl]-1-piperidinyl}methyl)benzohydrazide trifluoroacetate]: the IC50 is under 1.5 nM on Cathepsin K, 2.5 to 15 nM against Falcipain-3 and under 1 nM against Falcipain-2.
`CN1CCN(C(=O)C2CCN(Cc3cccc(C(=O)NN(c4nc(C#N)ncc4Br)C4CCCCC4)c3)CC2)CC1` [Example 23, N′-(5-bromo-2-cyano-4-pyrimidinyl)-N′-cyclohexyl-3-({4-[(4-methyl-1-piperazinyl)carbonyl]-1-piperidinyl}methyl)benzohydrazide trifluoroacetate]: the IC50 was under 1.5 nM at Cathepsin K, 2.5 to 15 nM at Falcipain-3 and under 1 nM on Falcipain-2.
For `N#Cc1ncc(Br)c(N(NC(=O)c2cccc(CN3CCC(N4CCOCC4)CC3)c2)C2CCCCC2)n1` [Example 24, N′-(5-bromo-2-cyano-4-pyrimidinyl)-N′-cyclohexyl-3-{[4-(4-morpholinyl)-1-piperidinyl]methyl}benzohydrazide trifluoroacetate] the same measures were under 1.5 nM, 2.5 to 15 nM and under 1 nM.
As for `CN1CCCC(CN2CCN(Cc3ccc(C(=O)NN(c4nc(C#N)ncc4Br)C4CCCCC4)cc3)CC2)C1` (stereo not drawn) [Example 25, N′-(5-bromo-2-cyano-4-pyrimidinyl)-N′-cyclohexyl-4-({4-[(-methyl-3-piperidinyl)methyl]-1-piperazinyl}methyl)benzohydrazide trifluoroacetate], the IC50 at Cathepsin K is under 1.5 nM; on Falcipain-3 it was 2.5 to 15 nM; against Falcipain-2, under 1 nM.
For the molecule `CN1CCC(CN2CCN(Cc3cccc(C(=O)NN(c4nc(C#N)ncc4Br)C4CCCCC4)c3)CC2)CC1` [Example 28, N′-(5-bromo-2-cyano-4-pyrimidinyl)-N′-cyclohexyl-3-({4-[(1-methyl-4-piperidinyl)methyl]-1-piperazinyl}methyl)benzohydrazide trifluoroacetate], the figures for the IC50 against Falcipain-3, at Cathepsin S and against Falcipain-2 were 2.5 to 15 nM, under 1000 nM and under 1 nM, respectively.
`CN1CCC(CN2CCN(Cc3ccc(C(=O)NN(c4nc(C#N)ncc4Br)C4CCOCC4)cc3)CC2)CC1` [Example 30, N′-(5—Bromo-2-cyano-4-pyrimidinyl)-4-({4-[(1-methyl-4-piperidinyl)methyl]-1-piperazinyl}methyl)-N′-(tetrahydro-2H-pyran-4-yl)benzohydrazide trifluoroacetate]: the figures for the IC50 at Cathepsin K, against Falcipain-3 and against Falcipain-2 were under 17 nM, 2.5 to 15 nM and 1 to 2.5 nM, respectively.
Take `CN1CCCC(CN2CCN(Cc3ccc(C(=O)NN(c4nc(C#N)ncc4Br)C4CCOCC4)cc3)CC2)C1` (stereo not drawn) [Example 31, N′-(5—Bromo-2-cyano-4-pyrimidinyl)-4-({4-[(1-methyl-3-piperidinyl)methyl]-1-piperazinyl}methyl)-N′-(tetrahydro-2H-pyran-4-yl)benzohydrazide trifluoroacetate]: the values for the IC50 on Cathepsin K, at Falcipain-3 and at Falcipain-2 were under 17 nM, 15 to 150 nM and under 1 nM, respectively.
For the molecule `CN1CCN(C(=O)C2CCN(Cc3ccc(C(=O)NN(c4nc(C#N)ncc4Br)C4CCOCC4)cc3)CC2)CC1` [Example 32, N′-(5—Bromo-2-cyano-4-pyrimidinyl)-4-({4-[(4-methyl-1-piperazinyl)carbonyl]-1-piperidinyl}methyl)-N′-(tetrahydro-2H-pyran-4-yl)benzohydrazide trifluoroacetate], the figures for the IC50 at Cathepsin K, on Falcipain-3 and at Falcipain-2 were under 17 nM, 2.5 to 15 nM and under 1 nM, respectively.
As to `N#Cc1ncc(Br)c(N(NC(=O)c2ccc(CN3CC(N4CCCC4)C3)cc2)C2CCOCC2)n1` [Example 33, N′-(5-bromo-2-cyano-4-pyrimidinyl)-4-{[3-(1-pyrrolidinyl)-1-azetidinyl]methyl}-N′-(tetrahydro-2H-pyran-4-yl)benzohydrazide trifluoroacetate], the IC50 at Cathepsin K is under 17 nM; against Falcipain-3, 15 to 150 nM; against Falcipain-2 it was under 1 nM.
In the case of `CN1CCC(CN2CCN(Cc3ccc(C(=O)NN(c4nc(C#N)ncc4Cl)C4CCOCC4)cc3)CC2)CC1` [Example 35, N′-(5-Chloro-2-cyano-4-pyrimidinyl)-4-({4-[(1-methyl-4-piperidinyl)methyl]-1-piperazinyl}methyl)-N′-(tetrahydro-2H-pyran-4-yl)benzohydrazide trifluoroacetate], the IC50 at Cathepsin K was under 17 nM; against Falcipain-3, 15 to 150 nM; against Falcipain-2, 1 to 2.5 nM.
`CN1CCN(C(=O)C2CCN(Cc3ccc(C(=O)NN(c4nc(C#N)ncc4Cl)C4CCOCC4)cc3)CC2)CC1` [Example 36, N′-(5-Chloro-2-cyano-4-pyrimidinyl)-4-({4-[(4-methyl-1-piperazinyl)carbonyl]-1-piperidinyl}methyl)-N′-(tetrahydro-2H-pyran-4-yl)benzohydrazide trifluoroacetate]: the concentration for half-maximal inhibition (IC50) at Cathepsin K is under 17 nM; on Falcipain-3, 15 to 150 nM; on Falcipain-2 (parasitic recombinant enzyme, H-D-VLR-AFC substrate, pH 5.5, endpoint read, read-out: Falcipain-2 IC50) it was under 1 nM.
Take `CC(=O)N1CCC(N(NC(=O)c2ccc(CN3CCC(N4CCN(C)CC4)CC3)cc2)c2nc(C#N)ncc2Br)CC1` [Example 38, N′-(1-acetyl-4-piperidinyl)-N′-(5-bromo-2-cyano-4-pyrimidinyl)-4-{[4-(4-methyl-1-piperazinyl)-1-piperidinyl]methyl}benzohydrazide trifluoroacetate]: the half-maximal inhibitory concentration (IC50) at Falcipain-3 (parasitic recombinant enzyme, H-D-VLR-AFC substrate, pH 5.5, endpoint read, read-out: Falcipain-3 IC50) was 2.5 to 15 nM; on Cathepsin S it was under 200 nM; against Falcipain-2, under 1 nM.
In the case of `CN1CCN(c2ccc(C(=O)NN(c3nc(C#N)ncc3Cl)C3CCCC3)cc2)CC1` [Example 52, N′-(5-chloro-2-cyano-4-pyrimidinyl)-N′-cyclopentyl-4-(4-methyl-1-piperazinyl)benzohydrazide trifluoroacetate], the IC50 was 2.5 to 15 nM against Falcipain-3, under 200 nM at Cathepsin S and under 1 nM against Falcipain-2.
With `CN(Cc1ccc(C(=O)NN(c2nc(C#N)ncc2Cl)C2CCCC2)cc1)C1CCCCC1` [Example 53, N′-(5-chloro-2-cyano-4-pyrimidinyl)-4-{[cyclohexyl(methyl)amino]methyl}-N′-cyclopentylbenzohydrazide trifluoroacetate], the figures for the IC50 against Falcipain-3, at Cathepsin S and against Falcipain-2 were 2.5 to 15 nM, under 200 nM and under 1 nM, respectively.
As for `CN(C)Cc1ccc(C(=O)NN(c2nc(C#N)ncc2Cl)C2CCCC2)cc1` [Example 54, N′-(5-chloro-2-cyano-4-pyrimidinyl)-N′-cyclopentyl-4-[(dimethylamino)methyl]benzohydrazide trifluoroacetate], the IC50 at Falcipain-3 is 2.5 to 15 nM; at Cathepsin S, under 200 nM; on Falcipain-2, under 1 nM.

The values above are taken from patent US20100009956A1, “NOVEL SUBSTITUTED PYRIMIDINES AS CYSTEINE PROTEASE INHIBITORS” (Glaxo Group Limited , a corporation, priority 2006, published 2010).
